Legend:
NPBWR2 = biological target: T1, NPBWR2 (Homo sapiens, UniProt P48146); test: NanoBRET screen HiBiT-NPBWR2 in HEK293; type: binding
T1 construct: purchased Promega (in-house HiBiT-GPCR construct library, NanoBRET)
Experimental: (§1) Each tracer candidate was screened across the entire library of HiBiT-GPCR constructs using NanoBRET as the detection modality. As depicted in Figure 4A, the specificity of interactions was evaluated through decrease in BRET due to competitive displacement of a bound tracer by excess parental compound. Each tracer was analyzed for binding to each HiBiT-GPCR fusion in the absence and in the presence of competing parental compound. Briefly, HEK293 cells were transfected with HiBiT-GPCR constructs diluted into promoterless DNA to reduce expression and maximize translocation to the cell surface. Each tracer candidate was then screened at concentrations of 1 μM and 0.1 μM across cells expressing these fusions. Cells were treated for 1.5 h with tracer either alone or in the presence of 20 μM competing parental compound (i.e., control). BRET was measured upon addition of purified LgBiT and subsequent complementation with HiBiT genetically fused to a GPCR. The specificity of interactions was assessed through a decrease in BRET signal due to competitive displacement of the bound tracer. To further gauge the robustness of these interactions, the fold response over the control (i.e., BRETtracer/BRETcontrol) was calculated. We chose a 1.5-fold response, which translates to ≥7-fold signal over noise as the minimal threshold required to score an interaction as positive. […]. Below we highlight the screening results obtained for our exemplary fluorescent tracers based on Clozapine, Amitriptyline and AZD1283.
(§2) HiBiT-GPCR DNA constructs were diluted in 10 mM Tris pH 8 to a final concentration of 0.01 μg/μL, arrayed in 96-well plates and stored at −20 °C. For transfection, HEK293 cells were suspended in Opti-MEM (without phenol red) supplemented with 2% fetal bovine serum (Seradigm) and 100 units/mL penicillin–streptomycin (Gibco) at a final concentration of 220,000 cells/mL and dispensed into white 96-well plates at 90 μL/well. Subsequent transfections and screens were carried using an Agilent Bravo Automated Liquid Handling Platform. First, the 96-well HiBiT DNA arrays were diluted 25-fold in Opti-MEM (without serum or phenol red) to a final concentration of 0.0004 μg/μL and 20 μL of the diluted DNAs were transferred into new 96-well plates. Next, promoterless carrier DNA (1 μg/μL) was diluted 25-fold (0.04 μg/μL) and then dispensed into the diluted arrays at 20 μL/well. Following brief mixing, Viafect transfection reagent (Promega) diluted 16-fold into Opti-MEM was dispensed into the plates at 40 μL/well. After mixing by pipetting, plates were incubated for 10 min on the pipetting station deck. The DNA-transfection reagent complexes were then added to plates containing cells. To facilitate the screen, 10 μL of DNA-transfection reagent complexes were added in duplicates to the top 4 and bottom 4 rows, resulting in two identical 48-well arrays per plate. Plates with transfected cells were incubated for 18–20 h at 37 °C/5% CO2. A screen of each tracer across the entire library using two different concentrations requires duplicate plates of transfected cells. Depending on the number of tracers being screened, transfections can be scaled up using the same ratios. The next day, for each tracer, four 20× screening solutions in tracer dilution buffer (Promega) were prepared: two duplicates at final concentration of 20 μM and two duplicates at a final concentration of 2 μM. A competing unmodified compound was added to one of each duplicate at a final concentration of 400 μM. The four resulting solutions were diluted 4-fold in Opti-MEM without serum or phenol red to generate 5× solutions (5 µM and 0.5 µM tracer +/− 100 μM competing compound). To screen the library, a BioTek MultiFlo FX liquid dispenser was used to dispense 22.5 µL of tracer solution to the top 4 rows and 22.5 µL tracer + competing compound solution to the 4 bottom rows. Plates were briefly mixed on an orbital shaker and incubated for 1.5 h at room temperature. […]

F2R = biological target: T2, F2R (Homo sapiens, UniProt P25116); test: NanoBRET screen HiBiT-F2R in HEK293; type: binding
T2 construct: purchased Promega (in-house HiBiT-GPCR construct library, NanoBRET)
T2 sequence (P25116 22-425): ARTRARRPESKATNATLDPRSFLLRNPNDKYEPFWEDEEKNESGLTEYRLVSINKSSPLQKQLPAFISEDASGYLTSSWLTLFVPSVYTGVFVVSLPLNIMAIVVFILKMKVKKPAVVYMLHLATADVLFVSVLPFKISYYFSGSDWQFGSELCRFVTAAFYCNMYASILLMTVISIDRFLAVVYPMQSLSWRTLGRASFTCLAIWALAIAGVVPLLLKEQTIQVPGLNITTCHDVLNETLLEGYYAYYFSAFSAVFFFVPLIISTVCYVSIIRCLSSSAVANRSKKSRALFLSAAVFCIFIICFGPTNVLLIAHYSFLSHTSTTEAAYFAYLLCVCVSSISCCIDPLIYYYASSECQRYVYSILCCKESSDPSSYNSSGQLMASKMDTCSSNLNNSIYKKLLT
Experimental: as §1, §2

T1 sequence (P48146 whole entry): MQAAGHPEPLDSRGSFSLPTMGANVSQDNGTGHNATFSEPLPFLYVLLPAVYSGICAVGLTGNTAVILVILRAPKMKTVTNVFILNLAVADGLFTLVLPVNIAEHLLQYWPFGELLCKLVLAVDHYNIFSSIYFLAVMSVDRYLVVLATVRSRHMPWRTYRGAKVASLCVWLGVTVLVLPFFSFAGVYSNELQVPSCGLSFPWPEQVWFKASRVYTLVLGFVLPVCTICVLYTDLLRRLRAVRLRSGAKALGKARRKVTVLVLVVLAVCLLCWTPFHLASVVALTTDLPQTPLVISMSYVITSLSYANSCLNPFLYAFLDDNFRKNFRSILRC

Structure (SMILES)	NanoBRET Fold Response (NPBWR2; NPBWR2, tracer 0.1μM)	NanoBRET Fold Response (NPBWR2; NPBWR2, tracer 1μM)	NanoBRET Fold Response (F2R; F2R, tracer 0.1μM)	NanoBRET Fold Response (F2R; F2R, tracer 1μM)	further results
CCOC(=O)c1cc(C#N)c(N2CCC(C(=O)NS(=O)(=O)Cc3ccccc3/C=C/C(=O)NCCNC(=O)CCc3ccc4n3[B-](F)(F)[N+]3=C(c5ccc[nH]5)C=CC3=C4)CC2)nc1C [AZD1283-1-NB590]					NanoBRET Fold Response (NPBWR2; NPBWR2, 0.1μM): 0.95; NanoBRET Fold Response (NPBWR2; NPBWR2, 1μM): 0.99; NanoBRET Fold Response (F2R; F2R, 0.1μM): 1.01; NanoBRET Fold Response (F2R; F2R, 1μM): 1.01
N#CN=C(NCCCOc1cccc(CN2CCCCC2)c1)NCCNC(=O)CCOCCOCCOCCOCCNC(=O)CCc1ccc2n1[B-](F)(F)[N+]1=C(c3ccc[nH]3)C=CC1=C2 [Aminopotentidine-2-NB590]	1.04	0.92	1.06	1.00	
CN(C)CCC=C1c2ccccc2CCc2ccc(C(=O)NCCNC(=O)CCOCCOCCOCCOCCNC(=O)CCc3ccc4n3[B-](F)(F)[N+]3=C(c5ccc[nH]5)C=CC3=C4)cc21 [Amitriptyline-a-2-NB590]					NanoBRET Fold Response (F2R; tracer at 0.1μM): 0.94; NanoBRET Fold Response (F2R; tracer at 1μM): 0.98
CN(C)CCC=C1c2ccccc2CCc2ccc(C(=O)NCCNC(=O)CCOCCOCCOCCOCCNC(=O)CCc3ccc4n3[B-](F)(F)[N+]3=C(c5ccc[nH]5)C=CC3=C4)cc21 [Amitriptyline-b-2-NB590]					NanoBRET Fold Response (NPBWR2; tracer at 0.1μM): 1.01; NanoBRET Fold Response (NPBWR2; tracer at 1μM): 0.95; NanoBRET Fold Response (F2R; tracer at 0.1μM, listed as amitriptyline-b-2-NB590): 0.76; NanoBRET Fold Response (F2R; tracer at 1μM, listed as amitriptyline-b-2-NB590): 0.97
COc1ccc2c(n1)c(CCNC(C)=O)cn2CCNC(=O)CCc1ccc2n1[B-](F)(F)[N+]1=C(c3ccc[nH]3)C=CC1=C2 [Azamelatonin-1-NB590]					NanoBRET Fold Response (NPBWR2; 0.1μM tracer): 0.91; NanoBRET Fold Response (NPBWR2; 1μM tracer): 0.82; NanoBRET Fold Response (F2R; 0.1μM tracer): 0.98; NanoBRET Fold Response (F2R; 1μM tracer): 0.96
COc1ccc2[nH]c(-c3ccc(CNC(=O)CCOCCOCCOCCOCCNC(=O)CCc4ccc5n4[B-](F)(F)[N+]4=C(c6ccc[nH]6)C=CC4=C5)cc3)c(CCNC(C)=O)c2n1 [AzomelatoninICO9-2-NB590]					NanoBRET Fold Response (NPBWR2; 0.1μM tracer): 1.08; NanoBRET Fold Response (NPBWR2; 1μM tracer): 0.90; NanoBRET Fold Response (F2R; 0.1μM tracer): 1.38; NanoBRET Fold Response (F2R; 1μM tracer): 0.84
O=C(CCOCCOCCOCCOCCNC(=O)CCc1ccc2n1[B-](F)(F)[N+]1=C(c3ccc[nH]3)C=CC1=C2)NCCCN1CCN(C2=Nc3cc(Cl)ccc3Nc3ccccc32)CC1 [Clozapine-a-2-NB590]					NanoBRET Fold Response (NPBWR2; NPBWR2, 0.1μM tracer): 1.04; NanoBRET Fold Response (NPBWR2; NPBWR2, 1μM tracer): 0.89; NanoBRET Fold Response (F2R; F2R, 0.1μM tracer): 1.12; NanoBRET Fold Response (F2R; F2R, 1μM tracer): 1.05
CN1CCN(C2=Nc3cc(Cl)ccc3Nc3ccc(CNC(=O)CCOCCOCCOCCOCCNC(=O)CCc4ccc5n4[B-](F)(F)[N+]4=C(c6ccc[nH]6)C=CC4=C5)cc32)CC1 [Clozapine-b-2-NB590]					NanoBRET Fold Response (NPBWR2; NPBWR2, 0.1μM tracer): 0.99; NanoBRET Fold Response (NPBWR2; NPBWR2, 1μM tracer): 1.08; NanoBRET Fold Response (F2R; F2R, 0.1μM tracer): 1.02; NanoBRET Fold Response (F2R; F2R, 1μM tracer): 1.01
CN1CCN(C2=Nc3cc(Cl)ccc3N(CC(=O)NCCOCCOCCOCCOCCNC(=O)CCc3ccc4n3[B-](F)(F)[N+]3=C(c5ccc[nH]5)C=CC3=C4)c3ccccc32)CC1 [Clozapine-c-2-NB590]					NanoBRET Fold Response (NPBWR2; NPBWR2, 0.1μM tracer): 0.97; NanoBRET Fold Response (NPBWR2; NPBWR2, 1μM tracer): 0.98; NanoBRET Fold Response (F2R; F2R, 0.1μM tracer): 0.99; NanoBRET Fold Response (F2R; F2R, 1μM tracer): 0.99
O=C(CCOCCOCCOCCOCCNC(=O)CCc1ccc2n1[B-](F)(F)[N+]1=C(c3ccc[nH]3)C=CC1=C2)NCCCN1CCN(C2=Nc3ccccc3Oc3ccc(Cl)cc32)CC1 [Loxapine-a-2-NB590]	1.07	0.93	0.97	1.05	
COc1ccccc1N1CCN(CCCCN2C(=O)c3ccc(CNC(=O)CCOCCOCCOCCOCCNC(=O)CCc4ccc5n4[B-](F)(F)[N+]4=C(c6ccc[nH]6)C=CC4=C5)cc3C2=O)CC1 [NAN-190-2-NB590]	1.00		1.07	0.93	
COc1ccccc1N1CCN(CCCCN2C(=O)c3ccc(CNC(=O)CCOCCNC(=O)c4ccc(CNC(=O)CCc5ccc6n5[B-](F)(F)[N+]5=C(c7ccc[nH]7)C=CC5=C6)cc4)cc3C2=O)CC1 [NAN-190-3-NB590]	0.96	0.79	0.97	1.11	
O=C(CCc1ccc2n1[B-](F)(F)[N+]1=C(c3ccc[nH]3)C=CC1=C2)NCc1ccc(C(=O)NCCOCCC(=O)N[C@@H]2CC[C@@]3(O)[C@H]4Cc5ccc(O)c6c5[C@@]3(CCN4CC3CC3)[C@H]2O6)cc1 [Naltrexone-3-NB590]	1.05	1.04	1.02	0.99	
Cc1cc2c(s1)Nc1ccccc1N=C2N1CCN(CCCNC(=O)CCOCCOCCOCCOCCNC(=O)CCc2ccc3n2[B-](F)(F)[N+]2=C(c4ccc[nH]4)C=CC2=C3)CC1 [Olanzapine-a-2-NB590]	0.98	1.02	1.01	0.90	
O=C(CCc1ccc2n1[B-](F)(F)[N+]1=C(c3ccc[nH]3)C=CC1=C2)NCc1ccc(C(=O)NCCOCCOCCNCC(O)COc2cccc3ccccc23)cc1 (stereo not shown) [Propranolol-3-NB590]					NanoBRET Fold Response (NPBWR2; NPBWR2, 0.1μM): 1.05; NanoBRET Fold Response (NPBWR2; NPBWR2, 1μM): 1.05; NanoBRET Fold Response (F2R; F2R, 0.1μM): 1.04; NanoBRET Fold Response (F2R; F2R, 1μM): 1.06
O=C(CCc1ccc2n1[B-](F)(F)[N+]1=C(c3ccc[nH]3)C=CC1=C2)NCCOCCOCCNC(=O)OCCOCCN1CCN(C2=Nc3ccccc3Sc3ccccc32)CC1 [Quetiapine-a-2-NB590]	0.97	1.09	1.09	1.41	
Cc1nc2n(c(=O)c1CCN1CCC(c3noc4cc(F)ccc34)CC1)CCCC2OC(=O)NCCOCCOCCOCCOCCNC(=O)CCc1ccc2n1[B-](F)(F)[N+]1=C(c3ccc[nH]3)C=CC1=C2 (stereo not shown) [Risperidone-2-NB590]	1.05	1.00	0.97	0.78	
CC(C)N(CC[C@H](c1ccccc1)c1cc(CCNC(=O)CCOCCOCCOCCOCCNC(=O)CCc2ccc3n2[B-](F)(F)[N+]2=C(c4ccc[nH]4)C=CC2=C3)ccc1O)C(C)C [Tolterodine-2-NB590]	1.41	0.83	1.20	1.03	
CC(C)N(CC[C@H](c1ccccc1)c1cc(CCNC(=O)c2ccc(CNC(=O)CCc3ccc4n3[B-](F)(F)[N+]3=C(c5ccc[nH]5)C=CC3=C4)cc2)ccc1O)C(C)C [Tolterodine-BZ-NB590]	0.96	1.06	1.09	0.85	
